# Assays:
# Format in all cases: in vivo
# [1] = system: soybean (cv OAC Bayfield); assay: Growth and yield of soybean under field conditions (1999)
# Protocol: The soybean experiment was conducted at the Lods Agronomy Research Centre, McGill University, Macdonald Campus, Ste-Anne-de-Bellevue, Quebec, Canada during the period June to September, 1999. A randomized complete block design with three blocks was followed. The plot size was 2×4 m with a row to row spacing of 25 cm and 10 cm between plants within a row. Seeds of soybean (cv OAC Bayfield), treated with commercial Bradyrhizobium japonicum inoculant (Bios Agriculture Inc., Quebec, Canada) at the rate of 3 g per kilogram of seed, were hand planted.
# At 25 days after planting twenty plants in each plot were randomly marked and sprayed until dripping with LCO solutions (10^−6, 10^−8 and 10^−10M) containing 0.02% Tween 20 with a hand sprayer. The plants on either side, within the row, of the marked plants were also sprayed. A second spray was carried out at flowering stage and a third spray at pod filling.
# As with the indoor experiments, photosynthetic readings were taken every day for five days after the application of LCO. For soybean additional developmental and agronomic data were collected. The first harvest was conducted at 25 days after the first spray treatment. Five plants were harvested from each plot and the following growth variables were analyzed: plant height, number of branches, number of leaves, leaf area, number of flower clusters, number of pods, number of nodules, dry weights of leaves, stem and roots. The final harvest was conducted after physiological maturity of the plants (Fehr et al., 1971); at this time the remaining fifteen treated plants from each plot were harvested and data on number of branches, number of pods, number of seeds and grain yield per plant was collected.
# [2] = system: melon (Cucumis melo cv Nova); assay: Photosynthesis of melon after LCO spray, greenhouse
# Protocol: (§1) Seeds of rice (Oryza sativa cv Cypress), canola (Brassica napus cv Springfield), corn (Zea mays cv Pioneer 3921) and melon (Cucumis melo cv Nova) were surface sterilized with 2% sodium hypochlorite for 3-4 min, washed with several changes of sterile distilled water and planted in plastic pots (15 cm dia) containing promix (Premier Brands Inc., New Rochelle, N.Y., USA).
# (§2) Concentrations of LCO (10^−6 M-10^−12 M) were made with distilled water containing 0.02% Tween 20. A control treatment, containing 0.02% Tween 20, but no LCO was also applied. Since the rates of growth and development differed among the plant species used in the experiments, spray treatment was conducted at different times after planting In general, the spray was applied when the plants were big enough to allow easy measurements of leaf photosynthetic rates. The following are the ages of the plants when the sprays were conducted: soybean 21 days after planting (DAP), corn 25 DAP, rice 45 DAP, melon (35 DAP) and canola 30 DAP. The plants were sprayed with LCO solutions until dripping. The sprays were applied with an atomizer (Nalgene, USA). Each plant required 2-3 mL of spray solution. Each treatment was replicated at least five times and organized on the green house bench in a randomized complete block design. Each experiment (with each crop species) was repeated at least twice.
# (§3) Photosynthesis was recorded every 24 h using a Li-Cor 6400 portable photosynthesis system (Li-Cor Inc., Lincoln, Neb., USA) for 6 days. In the case of soybean the photosynthesis in the second nodal leaf from the top was recorded while in the other species used in the photosynthetic rate was measured for the top-most fully expanded leaf. Soybean plants were harvested after seven days of LCO treatment and dried at 80° C. for 48 h. Data were analyzed with the Statistical Analysis System (SAS Inc., N.C., USA). Percent increase in photosynthesis over the control was calculated.
# soybean = assay: Foliar spray of LCO on yield of soybean (2000 cropping season); conditions: for Seed yield/plant / Seed yield: 0% seed moisture; for Seed yield: assuming 500,000 plants per ha
# Description: LCO 10^−6 M improved the yield by about 60%. The increase in yield was due to the increase in the number of pods/plant. The 100-seed weight was not increased by LCO spray during the 2000 field season. Also of note, the LCO application in the field experiments in year 2000 were by spraying whole plots, as opposed to individual plants (1999). Thus, the LCO effects described in the present invention are also observable when using large production application methods.
# [3] = system: canola (Brassica napus cv Springfield); assay: Photosynthesis of canola after LCO spray, greenhouse
# Protocol: as §1, §2, §3
substance,measurement,setting,value
"Nod Bj V (C18:1, MeFeu)",Leaf area/Plant,"[1]; LCO 10^−6 M, field",2306.3 cm^2
same,No. Branches/Plant,"[1]; LCO 10^−6 M, field",4.2
same,No. Leaves/Plant,"[1]; LCO 10^−6 M, field",29.4
same,No. Nodules/Plant,"[1]; LCO 10^−6 M, field",63.5
same,No. Pod clusters/Plant,"[1]; LCO 10^−6 M, field",24.3
same,No. Pods/Plant,"[1]; LCO 10^−6 M, field",42.9
same,No. seeds/Plant,"[1]; LCO 10^−6 M, field",104.7
same,Plant height,"[1]; LCO 10^−6 M, field",78.5 cm
same,Root Dry weight/plant,"[1]; LCO 10^−6 M, field",3.0 gm
same,Seed yield/plant,"[1]; LCO 10^−6 M, field",22.1 gm
same,Shoot dry weight/Plant,"[1]; LCO 10^−6 M, field",24.7 gm
same,Leaf area/Plant,"[1]; LCO 10^−8 M, field",2120.4 cm^2
same,No. Branches/Plant,"[1]; LCO 10^−8 M, field",5.1
same,No. Leaves/Plant,"[1]; LCO 10^−8 M, field",25.4
same,No. Nodules/Plant,"[1]; LCO 10^−8 M, field",84.6
same,No. Pod clusters/Plant,"[1]; LCO 10^−8 M, field",24.8
same,No. Pods/Plant,"[1]; LCO 10^−8 M, field",42.4
same,No. seeds/Plant,"[1]; LCO 10^−8 M, field",106.3
same,Plant height,"[1]; LCO 10^−8 M, field",85.8 cm
same,Root Dry weight/plant,"[1]; LCO 10^−8 M, field",2.3 gm
same,Seed yield/plant,"[1]; LCO 10^−8 M, field",21 gm
same,Shoot dry weight/Plant,"[1]; LCO 10^−8 M, field",23.7 gm
same,Leaf area/Plant,"[1]; LCO 10^−10 M, field",1513.1 cm^2
same,No. Branches/Plant,"[1]; LCO 10^−10 M, field",3.4
same,No. Leaves/Plant,"[1]; LCO 10^−10 M, field",22.2
same,No. Nodules/Plant,"[1]; LCO 10^−10 M, field",68.3
same,No. Pod clusters/Plant,"[1]; LCO 10^−10 M, field",28.3
same,No. Pods/Plant,"[1]; LCO 10^−10 M, field",48.0
same,No. seeds/Plant,"[1]; LCO 10^−10 M, field",118.1
same,Plant height,"[1]; LCO 10^−10 M, field",83.5 cm
same,Root Dry weight/plant,"[1]; LCO 10^−10 M, field",2.3 gm
same,Seed yield/plant,"[1]; LCO 10^−10 M, field",22.6 gm
same,Shoot dry weight/Plant,"[1]; LCO 10^−10 M, field",19.8 gm
same,Plant height,"[1]; field 1999, LCO treatment vs control",not affected
same,grain yield enhanced by,"[1]; field, spray at seedling, flowering and podfilling stages",33-44%
same,intercellular CO2 concentration,[2],unaffected
same,stomatal conductance,[2],increases
same,transpiration,[2],increases
same,increase in photosynthesis,[2]; in general,10-20%
same,100-seed weight,soybean; LCO 10^−6 M,17.4 g
same,Pod weight/plant,soybean; LCO 10^−6 M,31.4 g
same,Pods/plant,soybean; LCO 10^−6 M,46.8
same,Seeds/plant,soybean; LCO 10^−6 M,118.0
same,Seed yield/plant,soybean; LCO 10^−6 M,21.0 g
same,Seed yield,soybean; LCO 10^−6 M,10.5 t/ha
same,100-seed weight,soybean; LCO 10^−8 M,17.8 g
same,Pod weight/plant,soybean; LCO 10^−8 M,24.1 g
same,Pods/plant,soybean; LCO 10^−8 M,39.1
same,Seeds/plant,soybean; LCO 10^−8 M,96.4
same,Seed yield/plant,soybean; LCO 10^−8 M,16.2 g
same,Seed yield,soybean; LCO 10^−8 M,8.1 t/ha
same,100-seed weight,soybean; LCO 10^−10 M,18.1 g
same,Pod weight/plant,soybean; LCO 10^−10 M,29.1 g
same,Pods/plant,soybean; LCO 10^−10 M,47.7
same,Seeds/plant,soybean; LCO 10^−10 M,117.7
same,Seed yield/plant,soybean; LCO 10^−10 M,21.8 g
same,Seed yield,soybean; LCO 10^−10 M,10.9 t/ha
same,100-seed weight,"soybean; LCO spray, 2000 field season",not increased
same,intercellular CO2 concentration,[3],unaffected
same,stomatal conductance,[3],increases
same,transpiration,[3],increases
same,increase in photosynthesis,[3]; in general,10-20%

# From US7637980B2, “Method of increasing photosynthesis in plants comprising an exposure thereof to lipochitooligosaccharides and compositions therefor” (McGill University, priority 1999, dated 2009)
